According to US10632133B2, “Anti-viral azide containing compounds” (Life Technologies Corporation, priority 2010, dated 2020):

Legend:
[1] = system: Nuclear-GFP BacMam 2.0 virus (baculovirus); test: BacMam baculovirus infectivity in U2-OS cells (nuclear-GFP expression); format: cell-based; conditions: virus labeled in Sf9 cells with 50 uM analog; 20 or 50 uL virus, overnight at 37C; FIG. 5
From the text: Inhibition of insect cell baculovirus infectivity with azido fatty acid analogs: The BacMam system uses a modified insect cell virus (baculovirus) as a vehicle to efficiently deliver and express genes in mammalian cells, A Nuclear-GFP BacMam 2.0 expression system (Invitrogen, C10602) was used as a model to determine if PTM analog labeling of the virus would affect mammalian cell infectivity. Viruses were labeled with various PTM analogs and used to infect mammalian cells. Infectivity was determined by the expression of nuclear-GFP, is viral entry into the cell is required for expression of GFP protein. […]
Characterization of BacMam virus production: To verify, quantitate, and normalize the amount of enriched viruses obtained from insect cell supernatants, samples of each virus were lysed in SDS sample preparation buffer (SPB), sonicated with a probe tip sonicator, and heated at 90C to completely dissolve the viral proteins. Viral protein concentrations of the lysates were then determined. […]
Mammalian cell infection protocol: To determine if the PTM analog-labeled viruses retain the ability to infect mammalian cells, 50,000 U2-OS cells (human osteosarcoma cell line) were plated onto a 6 well-chamber glass bottom plate. […] The following day cells were imaged on AMG EVOS fluorescence microscope at 10× or 20× magnification using both white light and GFP filters (FIG. 5). […]

HIV = HIV infectivity, luciferase reporter assay on TZM/BI reporter cell line with azide-labeled virus; format: cell-based, human immunodeficiency virus (HIVNL4-3); conditions: virus produced in CEMx174 cells spiked with the compound; incubated 12 hours on TZM/BI; single cycle replication system; two luciferase reagents (FIGS. 3 and 4)
Procedure: CEMx174 cells were transfected with HIVNL4-3 in a T-150 flask and the virus production was monitored by reverse transcriptase activity until peak virus production occurred (usually 7 to 9 days post transfection). Prior to transfection, the CEMx174 cells were spiked with the following azide-modified biomolecules: 15-azidopentadecanoic acid (50-100 μM), 12-azidododecanoic acid (50-100 μM), tetraacetylated N-azidoacetylgalactosamine (20-40 μM), and tetraacetylated N-azidoacetyl-D-mannosamine (20-40 μM).
Labeled virus was also obtained from the transfected cells. More specifically, virus-containing supernatants were collected and virus was purified through 20% sucrose as previously described (Graham, D. R. et al., Proteomics 2008, 8:4919-30). The purified virus was then mixed with the CLICK-IT® detection reagent, tetramethylrhodamine (TAMRA) alkyne and the CLICK-IT® Protein Reaction Buffer Kit (Invitrogen, Carlsbad, Calif.). Virus samples were run on a one-dimensional gel to reveal azide-labeled viral proteins (FIG. 2). […]
To examine the effect of the azide-modified biomolecules on the innate biology of the virus, the azide-labeled virus from the transfected cells was isolated and tested in cell infection studies. […] Viral infectivity was determined by measuring cellular luciferase activities with two different luciferase reagents.

| SMILES | nuclear-GFP expression in U2-OS cells treated with labeled BacMam virus [1] | impact on the infectivity of the virus (cellular luciferase activities) (HIV) |
| --- | --- | --- |
| [N-]=[N+]=NCCCCCCCCCCCCCCC(=O)O [15-azidopentadecanoic acid] | no nuclear-GFP expression |  |
| [N-]=[N+]=NCCCCCCCCCCCC(=O)O [12-azidododecanoic acid] | no nuclear-GFP expression | profound impact on the infectivity of the virus |
